Legend:
[1] = test system: patients with diabetic nephropathy; experiment: 24-hour urine protein (proteinuria), open-labeled randomized study; assay type: in vivo, human; design: Mean 24 h Urine protein, 1 month after treatment at V3 / Result Difference 24 h Urine protein, V3 (1 month) vs baseline V2 / Mean 24 h Urine protein, 3 month after treatment at V4: unit not given here
Description: In this study, a total of 30 patients were planned of which 18 were randomized and subjected to enter into one of the studies in which the patient groups each received MMF alone, lisinopril alone, or a combination of both MMF and lisinopril.
The primary end-point for this study was the proteinuria value obtained from the patients via 24-hour urine protein which was measured using the Calorimetric method Pyrogallol Red/SDS liquid stable single reagent.
(§1) Evaluation of the effects of MMF or ACE inhibitors alone or in combination on the status of proteinuria in patients with diabetic nephropathy was an open-labeled, randomized study. This study consisted of three arms as shown below. • 1. treatment with MMF alone • 2. treatment with combination of MMF and lisinopril • 3. treatment with lisinopril alone In addition, there were three phases of the study as shown below.
Phase 2: Treatment Phase (6 months): Every patient who qualified the screening phase was assigned one of the treatment arms. During this phase, patients were monitored closely and efficacy and safety parameters are assessed every month.
(§2) Study Products and Dosage: • 1. MMF: The dose of MMF given during the study was 500 mg per oral twice a day throughout the study. • 2. Lisinopril: The starting dose of lisinopril given in the study was 5 mg per oral twice a day. In case of hypertensive patients, the dose could be titrated upwards based on investigator's discretion, which in turn was based on the patient's “safety end point”. • 3. MMF+Lisinopril: In the patients who received both the drugs, the dose of MMF was 500 mg per oral twice a day and lisinopril was 5 mg per oral twice a day. In the case of hypertensive patients, the dose of lisinopril could be titrated upwards based on investigator's discretion, which in turn was based on the patient's “safety end point”.

[2] = test system: patients with diabetic nephropathy; experiment: Estimated GFR (Cockcroft-Gault formula), open-labeled randomized study; assay type: in vivo, human
Description: A secondary end-point for this study was the GFR value obtained for each patient. This Secondary Endpoint included Estimated GFR, which was calculated using the following formulae: […]
Once all data was collected, Glomerular Filtration Rate GFR) was determined by the Cockcroft-Gault formula.
as §1, §2

[3] = test system: patients with IgA nephropathy; conditions: MMF 1-1.5g per day vs Prednisone 30-40 mg per day; followed to 72 weeks; preliminary report; cited from earlier work
Diabetic rats = conditions: 8 months; cited from earlier work
[4] = test system: patients with lupus nephritis; conditions: systemic lupus erythomatosis; 0.5 to 1.5 g/d; cited from earlier work
[5] = test system: patients with type 1 diabetes mellitus and diabetic nephropathy; conditions: cited from earlier work
[6] = Benefited patients, MMF alone 500 mg per oral twice a day
[7] = Benefited patients, MMF alone 500 mg twice daily
[8] = Not benefited patients, MMF alone 500 mg per oral twice a day
[9] = Not benefited patients, MMF alone 500 mg twice daily
[10] = Benefited patients, lisinopril alone 5 mg twice daily
[11] = Not benefited patients, lisinopril alone 5 mg twice daily

COc1c(C)c2c(c(O)c1C/C=C(\C)CCC(=O)OCCN1CCOCC1)C(=O)OC2 [MMF, mycophenolate mofetil]
Mean 24 h Urine protein, 1 month after treatment at V3 [1, 6]: 112.73
Result Difference 24 h Urine protein, V3 (1 month) vs baseline V2 [1, 6]: −203.93
Mean 24 h Urine protein, 3 month after treatment at V4 [1, 7]: 260.8
Result Difference 24 h Urine protein, V4 (3 month) vs baseline V2 [1, 7]: −136.6
patients with reduced proteinuria ([1]; MMF alone 500 mg twice daily, at V4 at the end of 3 months): 67%
patients with reduced proteinuria ([1]; MMF alone, after 1 month of treatment (V3 vs V2)): 67%
Mean 24 h Urine protein, 1 month after treatment at V3 [1, 8]: 696.3
Result Difference 24 h Urine protein, V3 (1 month) vs baseline V2 [1, 8]: 361.7
Mean 24 h Urine protein, 3 month after treatment at V4 [1, 9]: 305.5
Mean GFR, 1 month after treatment at V3 [2, 6]: 89.3 mL/min
Result Difference GFR, V3 (1 month) vs baseline V2 [2, 6]: 0.27 mL/min
Mean GFR, 3 month after treatment at V4 [2, 7]: 81.85 mL/min
Result Difference GFR, V4 (3 month) vs baseline V2 [2, 7]: -1.35 mL/min
Mean GFR, 1 month after treatment at V3 [2, 8]: 75.26 mL/min
Result Difference GFR, V3 (1 month) vs baseline V2 [2, 8]: 4.40 mL/min
Mean GFR, 3 month after treatment at V4 [2, 9]: 49.9 mL/min
decreasing proteinuria, protecting renal function and decreasing blood lipid levels [3]: superior to Prednisone
albuminuria, glomerular macrophage infiltration and glomerulosclerosis (Diabetic rats): did prevent
effect on blood pressure, glomerular dynamics or blood glucose levels (Diabetic rats): no effect
tolerability [4]: well tolerated

C[C@H](CS)C(=O)N1CCC[C@H]1C(=O)O [Captopril]
progression of renal disease [5]: prevents or delays the progression of renal disease

NCCCC[C@H](N[C@@H](CCc1ccccc1)C(=O)O)C(=O)N1CCC[C@H]1C(=O)O [lisinopril]
Mean 24 h Urine protein, 1 month after treatment at V3 [1, 10]: 236.66
Mean 24 h Urine protein, 3 month after treatment at V4 [1, 10]: 161.15
Mean 24 h Urine protein, 6 month after treatment at V5 [1, 10]: 248.4
Result Difference 24 h Urine protein, V3 (1 month) vs baseline V2 [1, 10]: −133.6
Result Difference 24 h Urine protein, V4 (3 month) vs baseline V2 [1, 10]: −268.75
Result Difference 24 h Urine protein, V5 (6 month) vs baseline V2 [1, 10]: −239.6
Mean 24 h Urine protein, 1 month after treatment at V3 [1, 11]: 211.25
Mean 24 h Urine protein, 3 month after treatment at V4 [1, 11]: 289.2
Mean 24 h Urine protein, 6 month after treatment at V5 [1, 11]: 626
Result Difference 24 h Urine protein, V3 (1 month) vs baseline V2 [1, 11]: 53.73
Result Difference 24 h Urine protein, V4 (3 month) vs baseline V2 [1, 11]: 101.47
Result Difference 24 h Urine protein, V5 (6 month) vs baseline V2 [1, 11]: 254.2
patients with reduced proteinuria ([1]; lisinopril alone 5 mg twice daily, at the end of 1 month): 42%
patients with reduced proteinuria ([1]; lisinopril alone 5 mg twice daily, at the end of 3 month): 40%
patients with reduced proteinuria ([1]; lisinopril alone 5 mg twice daily, at the end of 6 month): 50%
Mean GFR, 1 month after treatment at V3 [2, 10]: 79.16 mL/min
Mean GFR, 3 month after treatment at V4 [2, 10]: 89.55 mL/min
Mean GFR, 6 month after treatment at V5 [2, 10]: 105.9 mL/min
Result Difference GFR, V3 (1 month) vs baseline V2 [2, 10]: -0.09 mL/min
Result Difference GFR, V4 (3 month) vs baseline V2 [2, 10]: 7.95 mL/min
Result Difference GFR, V5 (6 month) vs baseline V2 [2, 10]: 28.5 mL/min
Mean GFR, 1 month after treatment at V3 [2, 11]: 63.97 mL/min
Mean GFR, 3 month after treatment at V4 [2, 11]: 68.76 mL/min
Mean GFR, 6 month after treatment at V5 [2, 11]: 76.4 mL/min
Result Difference GFR, V3 (1 month) vs baseline V2 [2, 11]: 1.91 mL/min
Result Difference GFR, V4 (3 month) vs baseline V2 [2, 11]: 0.13 mL/min
Result Difference GFR, V5 (6 month) vs baseline V2 [2, 11]: -9.4 mL/min

Source: patent US7728033B2, “Mycophenolate mofetil in diabetic nephropathy” (Clinigene International Private Limited, priority 2003, dated 2010)
